# Laboratory results: the RepoRT retention time repository
# Where a name gives a salt, the structure may show the parent alone.
# Experiment: RP, Thermo Scientific Hypersil GOLD, 1.9 µm, 40 °C, 0.4 mL/min; A: water + 0.1% formic acid, pH 3; B: acetonitrile + 0.1% formic acid, pH 3; gradient (min/%B) 0/0 1/0 11/100 13/100 14/0 16/0
# Conditions: stereoisomer not certain
row,LC retention time [min],Structure (SMILES)
1,0.63,C[n+]1cccc(C(N)=O)c1 [1-METHYLNICOTINAMIDE]
2,0.83,NCCc1ccc(O)c(O)c1 [DOPAMINE]
3,2.11,CCOC(N)=O [Urethane]
4,5.73,CC(=O)NC(Cc1ccccc1)C(=O)O (stereo not drawn) [N-ACETYLPHENYLALANINE]
5,0.64,O=C(CO)C(O)C(O)C(O)CO (stereo not drawn) [SORBOSE]
6,4.88,O=C(O)Cc1ccc(O)cc1 [4-Hydroxyphenylacetic acid]
7,0.82,O=c1[nH]cc(CO)c(=O)[nH]1 [5-HYDROXYMETHYLURACIL]
8,1.05,O=C(O)CCCC(=O)C(=O)O [2-OXOADIPATE]
9,0.62,NCCC(=O)O [BETA-ALANINE]
10,4.67,O=C(O)c1cc(=O)c2ccccc2[nH]1 [Kynurenic acid]
11,6.21,Oc1ccccc1 [PHENOL]
12,6.54,O=C1CCCCO1 [5-VALEROLACTONE]
13,1.9,CC(=O)NC(CS)C(=O)O (stereo not drawn) [N-ACETYLCYSTEINE]
14,3.49,O=C(O)c1ccc(CO)o1 [5-hydroxymethyl-2-furancarboxylic acid]
15,6.28,OCCc1c[nH]c2ccccc12 [INDOLE-3-ETHANOL]
16,7.15,O=C(O)CCCCCCCCCC(=O)O [undecanedioic acid]
17,12.6,C=CC1=C(C)C(=Cc2[nH]c(Cc3[nH]c(C=C4NC(=O)C(C)=C4C=C)c(C)c3CCC(=O)O)c(CCC(=O)O)c2C)NC1=O [BILIRUBIN]
18,6.88,Cc1cc(O)cc2c1OC(C)(CCC(=O)O)CC2 (stereo not drawn) [delta CEHC]
19,0.72,NC(CCSSCCC(N)C(=O)O)C(=O)O (stereo not drawn) [HOMOCYSTINE]
20,0.54,NCCCCN=C(N)N [AGMATINE SULFATE]
21,0.69,OCC1OC(OC2(CO)OC(CO)C(O)C2O)C(O)C(O)C1O (stereo not drawn) [SUCROSE]
22,3.2,C=C(CC(=O)O)C(=O)O [ITACONATE]
23,0.82,NC(Cc1ccc(O)c(O)c1)C(=O)O [3-4-DIHYDROXY-L-PHENYLALANINE]
24,0.59,C[S+](CCC(N)C(=O)[O-])CC1OC(n2cnc3c(N)ncnc32)C(O)C1O (stereo not drawn) [S-ADENOSYLMETHIONINE]
25,0.64,C[N+](C)(C)CCOP(=O)(O)OP(=O)([O-])OCC1OC(n2ccc(N)nc2=O)C(O)C1O (stereo not drawn) [CITICOLINE]
26,6.1,CC(=O)Oc1cccc(O)c1 [RESORCINOL MONOACETATE]

row,Structure (SMILES),LC retention time [min]
1,CCCCCCCCCC(=O)OCC(COP(=O)([O-])OCC[N+](C)(C)C)OC(=O)CCCCCCCCC (stereo not drawn) [DIDECANOYL-GLYCEROPHOSPHOCHOLINE],11.1
2,Nc1cccc2ccccc12 [1-NAPHTHYLAMINE],5.87
